Assay results: US7638496B2 (priority 2000, dated 2009)

Columns and labels:
IMP dehydrogenease = settings: cited from earlier work
PTV (Adames strain) = experiment: PTV infection in C57BL/6 mice in vivo; settings: 24 h post infection by PTV
Description: For 24 h post infection by PTV in vivo the minimum effective s.c. dose of 32 mg/kg for ribavirin and for viramidine was 96 mg/kg given s.c. b.i.d for 5 days. For 24 h post infection by PTV in vivo the minimum effective p.o. dose of 20 mg/kg for ribavirin and for viramidine was 40 mg/kg given p.o. b.i.d for 5 days.

NC(=O)c1ncn([C@@H]2O[C@H](CO)[C@@H](O)[C@H]2O)n1 [Ribavirin, 1-β-D-ribofuranosyl-1,2,4-triazole-3-carboxamide]
IMP dehydrogenase inhibition (IMP dehydrogenease): inhibitor of IMP dehydrogenease | minimum effective p.o. dose (PTV (Adames strain); p.o. b.i.d for 5 days): 20 mg/kg | minimum effective s.c. dose (PTV (Adames strain); s.c. b.i.d for 5 days): 32 mg/kg
